Laboratory results as given in patent US20210052741A1, “GENE THERAPY METHODS AND COMPOSITIONS USING AUXOTROPHIC REGULATABLE CELLS” (AUXOLYTIC LTD, priority 2018, published 2021).
Where “and” joins values, the source holds several entries; their conditions need not be identical. Equal values may be shown once.

How the values were obtained:
[1] = system: UMPS edited T cells; assay: TIDE analysis of UMPS InDels in mixed UMPS edited population; type: cell-based, human
Procedure: Sanger sequencing of the UMPS locus was performed using UMPS-O-1 and UMPS-O-2, with the region amplified using PHUSION™ Hot Start Flex 2x Master Mix (New England Biolabs, Inc.). Sanger sequencing traces were analyzed by TIDE analysis (see, Brinkman et al, 2014, Nucleic Acids Res. 42(22):e168), which is hereby incorporated by reference in its entirety) to identify insertions and deletions (InDels) after editing. InDel quantification was performed on the sequences using the TIDE online tool (www.deskgen.com/landing/tide.html) (See, M. Sadelain, N. Engl. J. Med. 365, 1735-7 (2011), which is hereby incorporated by reference in its entirety.
T Cells were electroporated and edited as in Example 2 and allowed to recover for a 4-day period in medium with serum, uridine, and UMP. On day 4, cells were shifted to UMP, uridine, or uracil source media. […]
To confirm the results on the genomic level, genomic DNA was harvested at the end of the experiment and InDels were quantified (FIG. 5D-FIG. 5E). FIG. 5D compares the frequency of InDels in different culture conditions for cells not exposed to 5-FOA.

[2] = system: WT T cells; assay: Auxotrophy assay in sorted T cells; type: cell-based, human; settings: for Viable cells per ml: Anti-CD3/-CD28 beads
Procedure: (§1) These T cells were also subjected to an auxotrophy assay and the possibility to select these cells with 5-FOA was tested. […] Higher Uridine concentrations led to higher proliferation rates. Auxotrophic growth of UMPS KO or wild-type (WT) T cells is shown in FIG. 7B and Table 28.

[3] = system: UMPS KO T cells; assay: Auxotrophy assay in sorted T cells; type: cell-based, human; settings: for Relative viability on Day 4 (%) / Viable cells per ml: UMPS KO
Procedure: as §1

[4] = oral; cited from earlier work
[5] = system: Mock T cells; assay: Growth time course with/without UMP or uridine; type: cell-based, human; settings: metabolite 250 μg/ml
Procedure: (§2) Genomic DNA was harvested using QUICKEXTRACT™ DNA Extraction Kit (Epicentre). Cells were counted on an automated cell counter using Trypan blue staining or on a CytoFLEX flow cytometer (Beckman Coulter) with automatic plate reader using COUNTBRIGHT™ beads (ThermoFisher) as a reference for normalizing the values. Alternatively, cells were analyzed after staining with fluorochrome-labelled antibodies (Biolegend) on an ACCURI™ C6 flow cytometer (BD Biosciences), which also measures volumes, or a FACS ARIA™ II SORP cell sorter (BD Biosciences). Data was analyzed using Excel (Microsoft) and FlowJo software (Tree Star).
(§3) T Cells were electroporated and edited as in Example 2 and allowed to recover for a 4-day period in medium with serum, uridine, and UMP. On day 4, cells were shifted to UMP, uridine, or uracil source media.
(§4) To evaluate whether the UMPS knockout leads to differential cell proliferation if cultured without the addition of Uridine or Uridine monophosphate (UMP), the cell counts in culture were followed over time by automatic cell counting with Trypan blue staining. UMPS knockout led to lower cell counts from day 2 after electroporation, compared to cells that were mock electroporated or electroporated using Cas9 targeting a different genomic locus (i.e., CCR5) (FIG. 5B).

[6] = system: CCR5 knockout T cells; assay: Growth time course with/without UMP or uridine; type: cell-based, human; settings: metabolite 250 μg/ml
Procedure: as §2, §3, §4

[7] = system: UMPS knockout T cells; assay: Growth time course with/without UMP or uridine; type: cell-based, human
Procedure: as §2, §3, §4

[8] = system: UMPS^KO/KO T cells mixed with wild-type T cells; assay: 5-FOA selection in mixed T cell population; type: cell-based, human
From the text: To evaluate the possibility to select for UMPS^KO/KO cells with 5-FOA, the sorted cells were mixed with wild-type cells, which were labeled with different tracking dyes, and cultured in the presence or absence of 5-FOA. In part of the samples, 5-FOA was only added on the first day (Day 0) while in another group it was supplemented daily. Table 30 and FIG. 7C show the percent (%) of the UMPS-KO T cells (labelled with eFluor670) over time when culturing with or without 5-FOA.
In fact, FACS analysis of a culture of a mixed population of UMPS knockout and wild-type T cells with 5-FOA. UMPS-KO T cells were labeled with eFluor670, and wild-type cells were labeled with carboxyfluorescein succinimidyl ester (CFSE). […] On Day 0 in the control group not treated with 5-FOA, 47.7% of the cells were UMPS-KO T cells, and 52.1% were wild-type cells. On Day 3 in the group with 5-FOA supplemented daily, 74.0% of the cells were UMPS-KO T cells, while 25.8% were wild-type cells. On Day 3 in the control group not treated with 5-FOA, 43.1% of the cells were UMPS-KO T cells, and 56.4% were wild-type cells.

[9] = cells not exposed to 5-FOA, end of experiment, metabolite 250 μg/ml
[10] = UMPS knockout, metabolite 250 μg/ml

O=c1ccn([C@@H]2O[C@H](CO)[C@@H](O)[C@H]2O)c(=O)[nH]1 [Uridine]
Alleles with frameshift InDels, Percent of alleles (without 5-FOA) ([1]; TIDE, day 8, metabolite 250 μg/ml): 52.5% | Alleles with InDels, Percent of alleles (without 5-FOA) ([1]; TIDE, metabolite 250 μg/ml): 77.0% | frameshift InDel frequency, Percent [1, 9]: 52.5% | overall InDel frequency, Percent (%) [1, 9]: 77.0% | Predicted viable cell counts, Cells with In-frame InDel ([1]; day 8, metabolite 250 μg/ml): 777000 | Predicted viable cell counts, Cells with frameshift InDel ([1]; day 8, metabolite 250 μg/ml): 1660000 | Predicted viable cell counts, Cells without InDel ([1]; day 8, metabolite 250 μg/ml): 729100 | Relative viability of the cell population on Day 4 ([2]; 2.5 μg/ml Uridine): 84.64 and 82.19 and 80.45 | Viable cells per ml ([2]; 2.5 μg/ml uridine): 486192 cells per ml and 362626 cells per ml and 364194 cells per ml | Relative viability of the cell population on Day 4 ([2]; 25 μg/ml Uridine): 83.91 and 83.40 and 79.66 | Viable cells per ml ([2]; 25 μg/ml uridine): 384503 cells per ml and 410116 cells per ml and 338547 cells per ml | Relative viability of the cell population on Day 4 ([2]; 250 μg/ml Uridine): 86.05 and 86.97 and 87.62 | Viable cells per ml ([2]; 250 μg/ml uridine): 609575 cells per ml and 412493 cells per ml and 468354 cells per ml | proliferation ([3]; Anti-CD3/-CD28 beads, different Uridine concentrations): proliferated only in the presence of Uridine | Relative viability on Day 4 (%) ([3]; 2.5 μg/ml Uridine): 78.78 and 79.28 and 79.74 | Viable cells per ml ([3]; 2.5 μg/ml uridine, Anti-CD3/-CD28 beads): 226596 cells per ml and 217594 cells per ml and 224448 cells per ml | Relative viability on Day 4 (%) ([3]; 25 μg/ml Uridine): 82.16 and 81.57 and 83.09 | Viable cells per ml ([3]; 25 μg/ml uridine, Anti-CD3/-CD28 beads): 282368 cells per ml and 268684 cells per ml and 304864 cells per ml | Relative viability on Day 4 (%) ([3]; 250 μg/ml Uridine): 85.66 and 85.29 and 84.38 | Viable cells per ml ([3]; 250 μg/ml uridine, Anti-CD3/-CD28 beads): 319120 cells per ml and 345862 cells per ml and 348022 cells per ml | absorption and breakdown [4]: poorly absorbed in the gastrointestinal tract and broken down in the liver | Cell density, Day 1 [5]: 9.78E+05 cells per ml | Cell density, Day 2 [5]: 1.98E+06 cells per ml | Cell density, Day 4 [5]: 3.90E+06 cells per ml | Cell density, Day 6 [5]: 4.91E+06 cells per ml | Cell density, Day 8 [5]: 4.09E+06 cells per ml | Cell density, Day 1 [6]: 9.67E+05 cells per ml | Cell density, Day 2 [6]: 1.71E+06 cells per ml | Cell density, Day 4 [6]: 3.70E+06 cells per ml | Cell density, Day 6 [6]: 3.92E+06 cells per ml | Cell density, Day 8 [6]: 3.96E+06 cells per ml | Cell density, Day 1 [7, 10]: 7.69E+05 cells per ml | Cell density, Day 2 [7, 10]: 1.59E+06 cells per ml | Cell density, Day 4 [7, 10]: 3.43E+06 cells per ml | Cell density, Day 6 [7, 10]: 3.79E+06 cells per ml | Cell density, Day 8 [7, 10]: 3.17E+06 cells per ml | Number of viable cells per ml, Day 1 [7, 10]: 769000 cells per ml | Number of viable cells per ml, Day 2 [7, 10]: 1590000 cells per ml | Number of viable cells per ml, Day 4 [7, 10]: 3430000 cells per ml | Number of viable cells per ml, Day 6 [7, 10]: 3790000 cells per ml | Number of viable cells per ml, Day 8 [7, 10]: 3170000 cells per ml | growth of UMPS edited culture ([7]; exogenous uracil source 250 μg/ml): rescued the growth of an UMPS edited culture to the same level as mock edited cells | cell proliferation after UMPS knockout ([7]; supplemented at 250 μg/ml): not impaired

O=C(O)c1[nH]c(=O)[nH]c(=O)c1F [5-FOA, 5-fluoroorotic acid]
Percent of UMPS^KO/KO cells in mixed cell population, Day 0 ([8]; 5-FOA Day 0 only): 43.7% and 43.2% | Percent of UMPS^KO/KO cells in mixed cell population, Day 1 ([8]; 5-FOA Day 0 only): 59.2% and 55.6% and 50.8% | Percent of UMPS^KO/KO cells in mixed cell population, Day 3 ([8]; 5-FOA Day 0 only): 67.2% and 68.6% and 67.8% | Percent of UMPS^KO/KO cells in mixed cell population, Day 0 ([8]; 5-FOA daily): 43.2% | Percent of UMPS^KO/KO cells in mixed cell population, Day 1 ([8]; 5-FOA daily): 58.5% and 55.4% and 54.5% | Percent of UMPS^KO/KO cells in mixed cell population, Day 3 ([8]; 5-FOA daily): 70.7% and 69.2% | percent wild-type cells in mixed population, Day 0 ([8]; 5-FOA only on the first day (Day 0), FACS): 56.0% | percent wild-type cells in mixed population, Day 3 ([8]; 5-FOA supplemented daily, FACS): 25.8% | percent of UMPS-KO T cells, treated vs untreated group ([8]; unpaired t test): significant increase in the percent of UMPS-KO T cells
